One series relates to Rats. In words: Acute intracisternal toxicity (method of Melartin et al.), rats. In kind it is in vivo. Here is the method:
(§1) Acute intracisternal toxicity was determined by the method of E. Melartin, P. Tuohimaa, R. Dabb, Investigative Radiology, 1970, vol. 5, n°1, 13-21.

The target of the next series is proteins (Homo sapiens, UniProt P02768). In words: Protein binding, Brodersen technique. The series is classed as in vitro ADME. The text has this: The degree of the interaction with proteins is an index of the tolerance of contrast media. The lower this interaction, the better the tolerance.
The protein binding was investigated according to the Brodersen technique (J. of Clinical Investigation, 1974, vol. 4, 1353-1364).

The test system of another series is Mice. Put plainly: Acute intracisternal toxicity (method of Melartin et al.), mice. In kind it is in vivo. Here is the method:
as §1

Sequence of proteins (P02768 25-609): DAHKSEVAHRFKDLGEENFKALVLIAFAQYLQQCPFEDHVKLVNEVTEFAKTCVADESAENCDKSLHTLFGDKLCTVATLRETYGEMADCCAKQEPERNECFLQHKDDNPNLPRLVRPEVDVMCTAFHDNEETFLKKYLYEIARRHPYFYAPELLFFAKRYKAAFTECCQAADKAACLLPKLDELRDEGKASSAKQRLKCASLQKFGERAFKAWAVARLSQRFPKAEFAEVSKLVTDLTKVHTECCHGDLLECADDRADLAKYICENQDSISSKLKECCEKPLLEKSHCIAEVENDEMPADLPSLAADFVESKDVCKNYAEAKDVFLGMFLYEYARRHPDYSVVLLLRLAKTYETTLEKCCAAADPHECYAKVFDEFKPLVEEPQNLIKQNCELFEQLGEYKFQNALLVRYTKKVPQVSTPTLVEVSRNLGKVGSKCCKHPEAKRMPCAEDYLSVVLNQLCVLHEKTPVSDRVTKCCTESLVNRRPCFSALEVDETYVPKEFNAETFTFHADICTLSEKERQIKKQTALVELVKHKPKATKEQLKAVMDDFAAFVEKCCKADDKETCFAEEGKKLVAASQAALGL

For `CNC(=O)c1c(I)c(NC(C)=O)c(I)c(C(=O)O)c1I` [Contrix (methylglucamine iothalamate), methylglucamine iothalamate], the “Acute toxicity IC (DL50) Rats” value in the series on Rats turned out to be 0.028 mole/rat.
As for `O=C(CCCCC(=O)Nc1c(I)cc(I)c(C(=O)O)c1I)Nc1c(I)cc(I)c(C(=O)O)c1I` [Methylglucamine adipiodone], on proteins, the Kd (in general, the free concentration of one partner at which half of the binding sites on the other are occupied at equilibrium, for simple one-to-one binding) is 0.0781 mM.
Take `CNC(=O)c1c(I)c(C(=O)NCC(=O)Nc2c(I)c(C(=O)O)c(I)c(C(=O)NCCO)c2I)c(I)c(N(C)C(C)=O)c1I` [Methylglucamine ioxaglate]: the equilibrium dissociation constant (Kd) on proteins was 8.2 mM.
As to `CC(=O)Nc1c(I)c(C(=O)O)c(I)c(C(=O)NCCO)c1I` [Telebrix], the “Acute toxicity IC (DL50) Mice” value with Mice turned out to be 0.2 g Eq iodine/kg.

The values above are taken from patent US4474747A, “Process for increasing the tolerance of X-ray contrast media, and contrast media obtained thereby” (Guerbet S.A., priority 1981, dated 1984).
